Columns and labels:
human TLR8 = molecular target: T1, human TLR8 (Homo sapiens, UniProt Q9NR97); experiment: HEK293-Blue-hTLR8 cells assay (NF-κB SEAP reporter); type: cell-based; settings: 20 hours incubation, agonism
T1 construct: host or cells: HEK293-Blue-hTLR8 (HEK293)
T1 sequence (Q9NR97 27-1041): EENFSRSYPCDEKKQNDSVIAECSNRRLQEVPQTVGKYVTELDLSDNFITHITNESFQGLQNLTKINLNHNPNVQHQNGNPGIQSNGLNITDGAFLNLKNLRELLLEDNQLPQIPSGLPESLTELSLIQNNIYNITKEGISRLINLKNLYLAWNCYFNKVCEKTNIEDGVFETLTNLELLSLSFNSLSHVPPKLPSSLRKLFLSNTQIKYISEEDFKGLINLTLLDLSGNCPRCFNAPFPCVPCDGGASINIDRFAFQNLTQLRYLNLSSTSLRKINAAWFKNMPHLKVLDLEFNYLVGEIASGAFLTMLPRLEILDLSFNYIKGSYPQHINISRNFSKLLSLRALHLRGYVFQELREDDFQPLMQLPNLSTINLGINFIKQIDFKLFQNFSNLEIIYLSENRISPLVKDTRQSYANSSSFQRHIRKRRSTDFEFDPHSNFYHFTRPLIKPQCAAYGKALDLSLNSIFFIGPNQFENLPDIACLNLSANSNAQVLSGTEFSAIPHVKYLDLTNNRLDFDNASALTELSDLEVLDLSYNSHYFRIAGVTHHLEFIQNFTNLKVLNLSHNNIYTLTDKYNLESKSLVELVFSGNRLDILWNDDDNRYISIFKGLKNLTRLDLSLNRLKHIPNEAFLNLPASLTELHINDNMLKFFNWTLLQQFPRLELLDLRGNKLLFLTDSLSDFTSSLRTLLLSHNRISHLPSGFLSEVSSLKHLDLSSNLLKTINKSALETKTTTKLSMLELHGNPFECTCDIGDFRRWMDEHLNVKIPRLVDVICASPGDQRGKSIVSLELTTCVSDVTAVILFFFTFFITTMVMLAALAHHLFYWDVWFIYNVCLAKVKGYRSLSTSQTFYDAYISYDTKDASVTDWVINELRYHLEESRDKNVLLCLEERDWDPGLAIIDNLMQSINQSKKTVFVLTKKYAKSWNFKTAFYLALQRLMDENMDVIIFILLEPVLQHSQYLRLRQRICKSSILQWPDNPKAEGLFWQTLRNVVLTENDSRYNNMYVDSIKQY
Text: A stable HEK293-Blue-hTLR8 cell line was purchased from InvivoGen (Cat. #: hkb-htlr8, San Diego, California, USA). These cells were designed for studying the stimulation of human TLR8 by monitoring the activation of NF-κB. A SEAP (secreted embryonic alkaline phosphatase) reporter gene was placed under the control of the IFN-β minimal promoter fused to five NF-κB and AP-1-binding sites. The SEAP was induced by activating NF-κB and AP-1 via stimulating HEK-Blue hTLR8 cells with TLR8 ligands. Therefore the reporter expression was regulated by the NF-κB promoter upon stimulation of human TLR8. The cell culture supernatant SEAP reporter activity was determined using QUANTI-Blue™ kit (Cat. #: rep-qbl, Invivogen, San Diego, Ca, USA) at a wavelength of 650 nm, a detection medium that turns purple to blue in the presence of alkaline phosphatase.
HEK293-Blue-hTLR8 cells were incubated at a density of 250,000-450,000 cells/mL in a volume of 180 μL in a 96-well plate in Dulbecco's Modified Eagle's medium (DMEM) containing 4.5 g/L glucose, 100 U/mL penicillin, 100 μg/mL streptomycin, 100 μg/mL Normocin, 1% (V/V) GlutaMAX™, 10% (v/v) heat-inactivated fetal bovine serum for 24 hours. Then the HEK293-Blue-hTLR8 cells were incubated with addition of 20 μL test compound in a serial dilution in the presence of final DMSO at 1% and perform incubation under 37° C. in a CO2 incubator for 20 hours. Then 20 μL of the supernatant from each well was incubated with 180 μL Quanti-blue substrate solution at 37° C. for 1 hours and the absorbance was read at 620-655 nm using a spectrophotometer. The signalling pathway that TLR8 activation leads to downstream NF-κB activation has been widely accepted, and therefore similar reporter assay was also widely used for evaluating TLR8 agonist.

human TLR7 = molecular target: T2, human TLR7 (Homo sapiens, UniProt Q9NYK1); experiment: HEK293-Blue-hTLR7 cells assay (NF-κB SEAP reporter); type: cell-based; settings: 20 hrs incubation, agonism
T2 construct: host or cells: HEK293-Blue-hTLR7 (HEK293)
T2 sequence (Q9NYK1 27-1049): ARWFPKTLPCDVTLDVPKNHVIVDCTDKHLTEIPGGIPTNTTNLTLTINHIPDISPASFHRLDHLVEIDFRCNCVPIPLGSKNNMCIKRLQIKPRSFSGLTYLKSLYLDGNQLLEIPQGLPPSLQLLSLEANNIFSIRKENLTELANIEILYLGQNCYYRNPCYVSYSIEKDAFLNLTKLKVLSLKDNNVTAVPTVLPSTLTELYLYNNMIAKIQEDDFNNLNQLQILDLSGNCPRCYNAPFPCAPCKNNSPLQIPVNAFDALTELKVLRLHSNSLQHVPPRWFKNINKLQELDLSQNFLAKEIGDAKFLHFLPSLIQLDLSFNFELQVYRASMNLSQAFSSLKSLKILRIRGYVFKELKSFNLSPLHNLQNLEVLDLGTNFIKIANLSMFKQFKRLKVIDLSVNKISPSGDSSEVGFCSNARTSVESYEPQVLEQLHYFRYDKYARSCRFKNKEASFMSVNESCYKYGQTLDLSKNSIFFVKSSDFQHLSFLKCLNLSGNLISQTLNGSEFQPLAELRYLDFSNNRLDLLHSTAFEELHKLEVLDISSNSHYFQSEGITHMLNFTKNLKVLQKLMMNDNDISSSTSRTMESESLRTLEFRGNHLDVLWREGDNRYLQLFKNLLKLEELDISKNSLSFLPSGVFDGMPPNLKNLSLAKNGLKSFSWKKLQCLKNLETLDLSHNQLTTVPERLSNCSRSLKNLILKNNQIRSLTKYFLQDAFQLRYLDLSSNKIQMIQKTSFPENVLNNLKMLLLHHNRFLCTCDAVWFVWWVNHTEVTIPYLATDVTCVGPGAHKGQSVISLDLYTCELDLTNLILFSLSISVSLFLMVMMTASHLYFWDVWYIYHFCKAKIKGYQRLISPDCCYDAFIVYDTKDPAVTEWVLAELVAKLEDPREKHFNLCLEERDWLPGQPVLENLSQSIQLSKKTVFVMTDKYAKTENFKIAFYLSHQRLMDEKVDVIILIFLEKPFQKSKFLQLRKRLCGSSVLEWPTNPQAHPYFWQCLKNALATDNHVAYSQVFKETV
Text: A stable HEK293-Blue-hTLR7 cell line was purchased from InvivoGen (Cat. #: hkb-htlr7, San Diego, California, USA). These cells were designed for studying the stimulation of human TLR7 by monitoring the activation of NF-κB. A SEAP (secreted embryonic alkaline phosphatase) reporter gene was placed under the control of the IFN-β minimal promoter fused to five NF-κB and AP-1-binding sites. The SEAP was induced by activating NF-κB and AP-1 via stimulating HEK-Blue hTLR7 cells with TLR7 ligands. Therefore the reporter expression was regulated by the NF-κB promoter upon stimulation of human TLR7 for 20 hrs. The cell culture supernatant SEAP reporter activity was determined using QUANTI-Blue™ kit (Cat. #: rep-qbl, Invivogen, San Diego, Ca, USA) at a wavelength of 650 nm, a detection medium that turns purple or blue in the presence of alkaline phosphatase.
HEK293-Blue-hTLR7 cells were incubated at a density of 250,000˜450,000 cells/mL in a volume of 180 μL in a 96-well plate in Dulbecco's Modified Eagle's medium (DMEM) containing 4.5 g/L glucose, 100 U/mL penicillin, 100 μg/mL streptomycin, 100 μg/mL Normocin, 1% (V/V) GlutaMAX™, 10% (V/V) heat-inactivated fetal bovine serum for 24 hrs. Then the HEK293-Blue-hTLR-7 cells were incubated with addition of 20 μL test compound in a serial dilution in the presence of final DMSO at 1% and perform incubation under 37° C. in a CO2 incubator for 20 hrs. Then 20 μL of the supernatant from each well was incubated with 180 μL Quanti-blue substrate solution at 37° C. for 1 hours and the absorbance was read at 620-655 nm using a spectrophotometer. The signalling pathway that TLR7 activation leads to downstream NF-κB activation has been widely accepted, and therefore similar reporter assay was also widely used for evaluating TLR7 agonist (Tsuneyasu Kaisho and Takashi Tanaka, Trends in Immunology, Volume 29, Issue 7, July 2008, […]; Hiroaki Hemmi et al, Nature Immunology 3, 196-200 (2002)).

SMILES | EC50 (human TLR8) | EC50 (human TLR7)
CCCCc1nc2c(N)nc(C)c(Sc3ccc(CN(C)C)cc3)c2[nH]1 [Example 14, 2-butyl-7-[4-[(dimethylamino)methyl]phenyl]sulfanyl-6-methyl-1H-imidazo[4,5-c]pyridin-4-amine] | 14 nM | 15 nM
CCCCc1nc2c(N)nc(C)c(SCCc3ccc(CN(C)C)cc3)c2[nH]1 [Example 15, 2-butyl-7-[2-[4-[(dimethylamino)methyl]phenyl]ethylsulfanyl]-6-methyl-1H-imidazo[4,5-c]pyridin-4-amine] | 22 nM | 6 nM
CCOCc1nc2c(N)nc(C)c(Sc3ccc(CN(C)C)c(C)c3O)c2[nH]1 [Example 16, 6-[[4-amino-2-(ethoxymethyl)-6-methyl-1H-imidazo[4,5-c]pyridin-7-yl]sulfanyl]-3-[(dimethylamino)methyl]-2-methyl-phenol] | 22 nM | 31 nM
CCOCc1nc2c(N)nc(C)c(Sc3ccc(CN(CC)CC)cc3O)c2[nH]1 [Example 17, 2-[[4-amino-2-(ethoxymethyl)-6-methyl-1H-imidazo[4,5-c]pyridin-7-yl]sulfanyl]-5-(diethylaminomethyl)phenol] | 56 nM | 24 nM
CCOCc1nc2c(N)nc(C)c(Sc3ccc(CN(C)C)c4cc[nH]c34)c2[nH]1 [Example 18, 7-[[4-[(dimethylamino)methyl]-1H-indol-7-yl]sulfanyl]-2-(ethoxymethyl)-6-methyl-1H-imidazo[4,5-c]pyridin-4-amine] | 19 nM | 9 nM
CCOCc1nc2c(N)nc(C)c(Sc3ccc(CN(C)C)c4cn[nH]c34)c2[nH]1 [Example 19, 7-[[4-[(dimethylamino)methyl]-1H-indazol-7-yl]sulfanyl]-2-(ethoxymethyl)-6-methyl-1H-imidazo[4,5-c]pyridin-4-amine] | 43 nM | 48 nM
CCOCc1nc2c(N)nc(C)c(Sc3ccc(CN(C)C)cc3N)c2[nH]1 [Example 20, 7-[2-amino-4-[(dimethylamino)methyl]phenyl]sulfanyl-2-(ethoxymethyl)-6-methyl-LH-imidazo[4,5-c]pyridin-4-amine] | 40 nM | 22 nM
CCCCc1nc2c(N)nc(C)c(Sc3ccc(CN(C)C)cc3O)c2[nH]1 [Example 21, 2-[(4-amino-2-butyl-6-methyl-1H-imidazo[4,5-c]pyridin-7-yl)sulfanyl]-5-[(dimethylamino)methyl]phenol] | 43 nM | 14 nM
CCOCc1nc2c(N)nc(C)c(Sc3ccc(CN4CCCC4)cc3O)c2[nH]1 [Example 22, 2-[[4-amino-2-(ethoxymethyl)-6-methyl-1H-imidazo[4,5-c]pyridin-7-yl]sulfanyl]-5-(pyrrolidin-1-ylmethyl)phenol] | 37 nM | 28 nM
CCOCc1nc2c(N)nc(C)c(Sc3cc(C)c(CN(C)C)cc3O)c2[nH]1 [Example 23, 2-[[4-amino-2-(ethoxymethyl)-6-methyl-1H-imidazo[4,5-c]pyridin-7-yl]sulfanyl]-5-[(dimethylamino)methyl]-4-methyl-phenol] | 82 nM | 25 nM
CCOCc1nc2c(N)nc(C)c(Sc3ccc(C(C)N(C)C)cc3O)c2[nH]1 (stereo not shown) [Example 24, 2-[[4-amino-2-(ethoxymethyl)-6-methyl-1H-imidazo[4,5-c]pyridin-7-yl]sulfanyl]-5-[1-(dimethylamino)ethyl]phenol] | 56 nM | 22 nM
CCOCc1nc2c(N)nc(C)c(Sc3cc(O)c(CN(C)C)cc3C)c2[nH]1 [Example 25, 5-[[4-amino-2-(ethoxymethyl)-6-methyl-1H-imidazo[4,5-c]pyridin-7-yl]sulfanyl]-2-[(dimethylamino)methyl]-4-methyl-phenol] | 61 nM | 33 nM
CCOCc1nc2c(N)nc(C)c(Sc3ccc(CN4CCCC4)cc3N)c2[nH]1 [Example 26, 7-[2-amino-4-(pyrrolidin-1-ylmethyl)phenyl]sulfanyl-2-(ethoxymethyl)-6-methyl-1H-imidazo[4,5-c]pyridin-4-amine] | 15 nM | 21 nM
CCOCc1nc2c(N)nc(C)c(Sc3ccc(CN4CCN(C)CC4)cc3N)c2[nH]1 [Example 27, 7-[2-amino-4-[(4-methylpiperazin-1-yl)methyl]phenyl]sulfanyl-2-(ethoxymethyl)-6-methyl-1H-imidazo[4,5-c]pyridin-4-amine] | 52 nM | 39 nM
